Source: patent US10738275B2, “Paenibacillus sp. strain, cultivation method and use of the same” (BRIGHT DAIRY & FOOD CO., LTD, priority 2016, dated 2020)

How the values were obtained:
B. Longum = experiment: in-vitro culture of infant fecal flora, PCR-intestinal microarray detection; assay type: cell-based; conditions: 0.4% (w/v) added, infant fecal flora in SIEM, anaerobic, 8 hours, 37° C.; blank control defined as 0
Protocol: (§1) The standard culture solution of fecal flora is prepared in accordance with the method of Minekus et al (Models of the gastrointestinal tract to study microbial interactions Original Research Article Biology of Growing Animals, 2005, 2:142-154).
(§2) (2) Certain amount of standard ileum efflux culture medium (SIEM, with 0.047 g/L pectin, 0.047 g/L xyloglucan, 0.047 g/L arabinogalactan, 0.047 g/L amylose, 0.392 g/L starch, 24.0 g/L casein, 17.0 g/L Tween 80, 24.0 g/L bacto peptone, 0.4 g/L oxgall, and 0.2 g/L cysteine) is added into a 96-well microtitration plate. Then, the 0.1% of the standard culture solution of fecal flora is added. The percentage refers to the volume percentage of the standard ileum efflux culture medium. Then, 0.4% of the purified extracellular polysaccharide (“BD3526 extracellular polysaccharide” for short) obtained in Example 11 and 0.4% of the commercialized fructooligosaccharide (FOS for short) are added into different wells among the 96 wells respectively. The final volume of liquid in each well is 1.5 mL. Meanwhile, the blank control is arranged. They are anaerobically cultured for 8 hours under 37° C. The percentage refers to the mass-volume percentage of the final volume of the liquid in a well of the 96-well microtitration plate.
(§3) (3) Once the cultivation is completed, the fermentation broth is mixed with 250 μL of lysis buffer, […], of zirconium bead liquid (0.1 mm) and 200 μL of phenol solution. Then they are homogenized on the bead beater (BIO SPEC Inc. U.S.) for twice (2 minutes for each time). The DNA is extracted with DNA Kit (TIANGEN BIOTECH CO., LTD). Then, PCR-intestinal microarray detection method (SALAZAR N, GUEIMONDE M, HERNANDEZ-BARRANCO A M, et al. Exopolysaccharides produced by intestinal Bifidobacterium strains act as fermentable substrates for human intestinal bacteria. Applied and environmental microbiology, 2008, 74(15): 4737-45.) is used to analyze the number of floras in samples with respect to that of the blank control (standard solution of fecal flora cultured without adding polysaccharide).

B. infantis = experiment: as above; assay type: cell-based; conditions: 0.4% (w/v) added, infant fecal flora in SIEM, anaerobic, 8 hours, 37° C.; blank control defined as 0
Protocol: as §1, §2, §3

B. breve = experiment: as above; assay type: cell-based; conditions: 0.4% (w/v) added, infant fecal flora in SIEM, anaerobic, 8 hours, 37° C.; blank control defined as 0
Protocol: as §1, §2, §3

human intestinal flora = experiment: in-vitro culture of adult fecal flora, PCR-DGGE of V3 area for total bacteria; assay type: cell-based; conditions: 0.4% added, faeces of healthy adults, anaerobic, 24 hours, 37° C.
Protocol: (1) The faeces of 30 healthy adults (male or female, with the age range from 23 to 25, excluding those who have intestinal diseases or taking antibiotic drugs recently). They are dissolved in pH7.3-phosphate buffer (8 g/L-NaCl, 0.2 g/L-KCl, 1.15 g/L-NaHPO4, and 0.2 g/L-KH2PO4) and mixed uniformly. It is added into the culture system at a volume ratio of 1:10. Then, 0.4% of the purified extracellular polysaccharide (BD3526EPS for short) obtained in Embodiment 11 and 0.4% of the commercialized fructooligosaccharide (FOS for short) are added into the culture system respectively. Meanwhile, the blank control is arranged. They are anaerobically cultured for 24 hours under 37° C. The percentages refer to the mass-volume percentages of the culture system.
(2) Once the culture is completed, the phenol-chloroform method (ERCOLINI D, HILL P J, DODD C E. Bacterial community structure and location in Stilton cheese. Applied and environmental microbiology, 2003, 69(6): 3540-8.) is used to extract the DNA of the cultures and fecal flora. […]

All bacteria = experiment: in-vitro culture of infant fecal flora, PCR-intestinal microarray detection; assay type: cell-based, infants' fecal flora; conditions: 0.4% (w/v) added, infant fecal flora in SIEM, anaerobic, 8 hours, 37° C.; blank control defined as 0
Protocol: as §1
(2) Certain amount of standard ileum efflux culture medium (SIEM, with 0.047 g/L pectin, 0.047 g/L xyloglucan, 0.047 g/L arabinogalactan, 0.047 g/L amylose, 0.392 g/L starch, 24.0 g/L casein, 17.0 g/L Tween 80, 24.0 g/L bacto peptone, 0.4 g/L oxgall, and 0.2 g/L cysteine) is added into a 96-well microtitration plate. Then, the 0.1% of the standard culture solution of fecal flora is added. The percentage refers to the volume percentage of the standard ileum efflux culture medium. Then, 0.4% of the purified extracellular polysaccharide (“BD3526 extracellular polysaccharide” for short) obtained in Example 11 and 0.4% of the commercialized fructooligosaccharide (FOS for short) are added into different wells among the 96 wells respectively. The final volume of liquid in each well is 1.5 mL. Meanwhile, the blank control is arranged. They are anaerobically cultured for 8 hours under 37° C. The percentage refers to the mass-volume percentage of the final volume of the liquid in a well of the 96-well microtitration plate. […]

All bifidobacteria = experiment: as above; assay type: cell-based, bifidobacteria in infants' fecal flora; conditions: 0.4% (w/v) added, 8 hours, 37° C.; for The increased log (ORF/mL) value of the flora in samples with respect to the blank control, All bifidobacteria: infant fecal flora in SIEM, anaerobic, blank control defined as 0
Protocol: as §1, §2, §3

Substance | The increased log (ORF/mL) value of the flora in samples with respect to the blank control, B. Longum (B. Longum) | The increased log (ORF/mL) value of the flora in samples with respect to the blank control, B. infantis (B. infantis) | The increased log (ORF/mL) value of the flora in samples with respect to the blank control, B. breve (B. breve) | brightness of PCR-DGGE stripes (FIG. 12), proliferation of bacteria in human intestinal flora, in words (human intestinal flora) | The increased log (ORF/mL) value of the flora in samples with respect to the blank control, All bacteria (All bacteria) | proliferation of the bifidobacteria in infants' fecal flora compared with the blank control group (FIG. 11), in words (All bifidobacteria) | The increased log (ORF/mL) value of the flora in samples with respect to the blank control, All bifidobacteria (All bifidobacteria)
levan [BD3526 extracellular polysaccharide] | 0.36 log (ORF/mL) | 0.017 log (ORF/mL) | 0.81 log (ORF/mL) | significantly brighter than those of the FOS group and the blank control group | 0.448 log (ORF/mL) | can also promote the proliferation of the bifidobacteria in infants' fecal flora | 0.74 log (ORF/mL)
fructooligosaccharide [FOS, reference compound] | 0.37 log (ORF/mL) | −0.121 log (ORF/mL) | 1.18 log (ORF/mL) |  | 0.12 log (ORF/mL) |  | 1.07 log (ORF/mL)
